In US4496545A, “Nonapeptide for treating addictive drug withdrawal conditions” (priority 1981, dated 1985):
Where no end group is shown, it is not given here.

Key:
morphine-dependent mouse = assay: Inhibition of the naloxone-triggered withdrawal leaps of the morphine-dependent mouse; type: in vivo; details: 30 mg/kg s.c. 30 minutes before naloxone; median leaps vs NaCl control
Text: An opiate-dependent organism for example reacts the same irrespective of species on the sudden withdrawal of the opiate (e.g. morphine) with withdrawal symptoms, i.e. addictive drug withdrawal conditions. In the course of this occurrence central and peripheral symptoms appear, of which the most striking in the mouse is a series of violent leaps (the so-called "jumping"). The number of leaps per time interval is proportional to the intensity of the withdrawal effect and their enumeration enables the incident to be evaluated quantitatively.
In order to produce the dependence a compressed tablet, which contained 75 mg of morphine (base) and which progressively dissolved with continuous liberation of the morphine, was implanted under the dorsal skin of male mice (weight about 22 g). On the third day after the implantation the morphine antagonist naloxone in a dosage of 0.1 mg/kg was administered subcutaneously to the animals in order to trigger off the withdrawal leaps.
After the injection, the leaps of each individual animal were counted for 20 minutes. The group median value was calculated from the total leaps of 8 animals, which formed a group. […] The dosage median values and, respectively, control median values were calculated from all individual values per dosage and, respectively, the positive and negative controls.

dogs [1] = details: dog, in vivo
Method: (§1) Toxicological studies were carried out on 12 male and 12 female rats as well as on 3 male and 3 female dogs per dosage. For this purpose DSIP was dissolved in physiological sodium chloride solution and administered intravenously daily for 4 weeks in the dosages of 0.6, 1.8 and 6 mg/kg. At an interval of 2 weeks during these studies the hematological, hematochemical and the urine status were determined, and the electrocardiogram was recorded and analyzed.
(§2) At the termination of the aforementioned studies all animals were painlessly killed and there followed the autopsy besides the removal of organ samples for histological investigations.

rats [2] = assay: Toxicological study, daily intravenous administration for 4 weeks, rats; details: maximum dosage (6 mg/kg i.v. daily for 4 weeks)
Method: as §1, §2

[3] = tested on: alcoholic or methadone- or heroin-dependent patients; details: human, in vivo
Method: Of the 25 alcoholic patients 8 were on admission already in delirium tremens to a medium to severe degrees. After the first subjective and objective withdrawal signs manifested themselves the patients received up to 4 intravenous infusions of in each case 0.0214 mg/kg of DSIP daily. For this purpose, the substance was dissolved in physiological sodium chloride solution and infused in the course of 5 minutes.
The duration of treatment amounted to a maximum of 3 days.

dogs [4] = assay: Toxicological study, daily intravenous administration for 4 weeks, dogs; details: maximum dosage (6 mg/kg i.v. daily for 4 weeks)
Method: as §1, §2

rats [5] = details: rat, in vivo
Method: as §1, §2

## CN1CC[C@]23c4c5ccc(O)c4O[C@H]2[C@@H](O)C=C[C@H]3[C@H]1C5 [Morphine]
morphine-dependent mouse
  % of negative control: 27%

## WAGGDASGE [DSIP, Trp-Ala-Gly-Gly-Asp-Ala-Ser-Gly-Glu]
Dogs [1]
  Tolerability of the dosages: tolerated without any side effects
Rats [2]
  Electrocardiogram: no changes in the electrocardiogram
[3]
  Tolerance of DSIP: poor: 2 patients
Dogs [4]
  Electrocardiogram: no changes in the electrocardiogram
Rats [5]
  Tolerability of the dosages: tolerated without any side effects
